Measured values as given in patent US11660286B2, “Methods and compositions comprising a nitrite-reductase promoter for treatment of medical disorders and preservation of blood products” (EpicentRx, Inc., priority 2011, dated 2023).
Where two headings read alike, the source gives them in different places.

Tests used:
hemorrhagic shock [1] = assay: Resuscitation from hemorrhagic shock, hamster window chamber model: microvascular measurements; assay type: in vivo, Golden Syrian Hamsters; conditions: for functional capillary density (FCD), baseline average and standard deviation: before hemorrhage (FIG. 11)
Procedure: (§1) Experiments were performed in 55-65 g male Golden Syrian Hamsters (Charles River Laboratories, Boston, Mass.) fitted with a dorsal skinfold window chamber. Animal handling and care followed the NIH Guide for the Care and Use of Laboratory Animals. The hamster window chamber model is widely used for microvascular studies in the unanesthetized state. The complete surgical technique is described in detail elsewhere, such as in Colantuoni et al. in Am J Physiol 1984; 246:H508-17. Three to four days after the initial surgery, the microvasculature was examined and only animals passing an established systemic and microcirculatory inclusion criteria, as previously described (e.g., in Cabrales P. Low dose nitrite enhances perfusion after fluid resuscitation from hemorrhagic shock. Resuscitation 2009; 80: 1431-6), were entered into the study.
(§2) Acute hemorrhage was induced by withdrawing 50% of estimated total blood volume (BV) via the carotid artery catheter within 5 min. Total BV was estimated as 7% of body weight. One hour after hemorrhage induction, animals received 25% of BY of resuscitation (200 μl/min) via the jugular vein catheter, implemented with the volume resuscitation strategy defined by the group name, according to the scheme described before.
(§3) Fresh blood was collected from a donor, adult male Golden Syrian Hamsters (60-80 g). Briefly, hamster donors were anaesthetized, left carotid artery catheter was implanted, and blood was allowed to flow into heparinized tubes (sodium heparin 15 IU/mL). RBCs and plasma were separated by centrifugation (2700 rpm, 7 min). Buffy coat was discarded. RRx-001 treated cells were prepared by incubation of 1 mL of packed cells with 2 mg of RRx-001 for 30 minutes at 4° C., cells were rinsed 2× by centrifugation at 3,000 rpm with phosphate buffer saline (PBS) solution with 0.5% albumin (pre-filtered 0.22 μm, pH 7.4). After the final wash, red blood cells (RBCs) were adjusted to a 30% Het with fresh plasma.
(§4) For the groups that received “nitrite,” 10 μM (in saline 100 μL) of sodium nitrite in saline was infused via the carotid artery catheter 10 minutes after resuscitation for the groups that received nitrite. An equal volume of saline was given to the other groups. To address effects of instrumentation and observation, an additional Sham group was included.
(§5) Conscious animal was placed in a restraining tube with a longitudinal slit from which the window chamber protruded, then fixed to the microscopic stage for transillumination with the intravital microscope (BX51WI, Olympus, New Hyde Park, N.Y.). Animals were given 20 min to adjust to the tube environment before any measurements were made. The tissue image was projected onto a charge-coupled device camera (4815, COHU, San Diego, Calif.) connected to a videocassette recorder and viewed on a monitor. Measurements were carried out using a 40× (LUMPFL-WIR, numerical aperture 0.8, Olympus) water immersion objective. Systemic (MAP, HR, Het, Hb, PaO2, PaCO2, pH, lactate, plasma nitrite, and metHb) and microvascular (artciorlar and venular diameters, blood flow, and FCD) parameters were analyzed, as previously described (e.g., in P. Nachuraju et al. in Resuscitation 2011; 82:607-613; Cabrales P. in Resuscitation 2009; 80:1431-6; Cabrales et al. in Shock 2007; 27:380-9; and Cabrales et al. in Am J Physiol 2004; 287:H363-73) before hemorrhage (baseline), after hemorrhage (shock), and up to 90 min after volume replacement (resuscitation). Tissue viability was measured at 8 hours following hemorrhage as described previously (e.g., in Yang et al. In Invest Ophthalmol Vis Sci 2003; 44:1993-1997; and Cabrales et al. in Antioxid Redox Signal 2007; 9:375-84).
(§6) Table and figure results are presented as mean±SD.

hemorrhagic shock [2] = assay: Resuscitation from hemorrhagic shock, hamster window chamber model: systemic parameters; conditions: for BP / HR / Hb / Hct / Lactate / pCO2 / pO2 / pH: mean ± SD; for pH: arterial
Procedure: as §1, §2, §3, §4, §5, §6

blood sample = assay: Nitric oxide production in a sample of blood with sodium nitrite (Tonometer, chemiluminescent NO analysis); assay type: cell-based; conditions: anaerobic conditions (N2 atmosphere), 30 min, 37° C., compared to without ABDNAZ or with ABDNAZ under air
Procedure: The ability of ABDNAZ to increase nitric oxide production in a sample of blood under aerobic conditions and anaerobic conditions was evaluated.
A 0.5 mL aliquot of blood was placed in a tonometer. ABDNAZ (5 μL of a 300 mM solution of ABDNAZ in dimethylsulfoxide) was optionally added to the blood sample in the Tonometer. Sodium nitrite was added to the blood sample to achieve a sodium nitrite concentration of 167 mM. Gas (either air or N2) was passed through the Tonometer at a flow rate of 150 mL/min. Gas exiting the Tonometer was collected in three-minute intervals for a period of thirty minutes. The amount of nitric oxide in each of the collected fractions was measured by a chemiluminescent reaction with ozone in a Sievers Nitric Oxide Analyzer. The amount of nitric oxide produced from the blood sample was expressed per mole of hemoglobin present in the blood sample. All experiments were performed at 37° C.
The amount of hemoglobin (Hb) and hematocrit (Het) in the blood sample was determined using an Advia analyzer.

hemorrhagic shock [3] = assay type: in vivo, Golden Syrian Hamsters
Procedure: as §1
Acute hemorrhage was induced by withdrawing 50% of estimated total blood volume (BV) via the carotid artery catheter within 5 min. Total BV was estimated as 7% of body weight. […]
as §5, with “Animals were given 20 min to adjust to the tube environment before any measurements were made. The tissue image was projected onto a charge-coupled device camera (4815, COHU, San Diego, Calif.) connected to a videocassette recorder and viewed on a monitor. Measurements were carried out using a 40× (LUMPFL-WIR, numerical aperture 0.8, Olympus) water immersion objective.” left out, “9:375-84). […]” for “9:375-84).”

hemorrhagic shock [4] = conditions: 50 μM nitrite, previous study, cited from earlier work
[5] = 60 minutes following resuscitation
[6] = 90 minutes following resuscitation
[7] = Shock (50 min), after hemorrhage, before resuscitation
[8] = Shock (50 min), before resuscitation
[9] = 8 hours following resuscitation, cells in 40 fields

## O=C(CBr)N1CC([N+](=O)[O-])([N+](=O)[O-])C1 [RRx-001]
Hemorrhagic shock [1]; [5]
  blood flow compared to the blood group: significantly (P<0.001) increased
Hemorrhagic shock [1]; [6]
  blood flow compared to the blood group: significantly (P<0.001) increased
Hemorrhagic shock [1]; 90 minutes post resuscitation
  functional capillary density (FCD) compared to the blood group: significant (P<0.05 and P<0.01, respectively) increases
Hemorrhagic shock [1]
  functional capillary density (FCD), baseline average and standard deviation: 112±9
Hemorrhagic shock [2]; 60 and 90 minutes post fluid resuscitation (FIG. 9), normal about 1% of total Hb
  metHb levels: normal
Hemorrhagic shock [2]; 30 minutes following resuscitation
  MAP compared to the blood group: only decreased at 30 minutes
Hemorrhagic shock [2]; 60 minutes following resuscitation, RRx-001 treated blood
  metHb levels: 1.4±0.1%
Hemorrhagic shock [2]; 60 minutes post resuscitation
  pH compared to the blood group: significantly increased
Hemorrhagic shock [2]; 60 minutes, comparator not stated
  blood pressure (MAP) after resuscitation from shock: significantly decreased
Hemorrhagic shock [2]; 90 minutes following resuscitation, RRx-001 treated blood
  metHb levels: 1.2±0.1%
Hemorrhagic shock [2]; 90 minutes post resuscitation
  pO2 levels compared to the blood group: significantly increased
Hemorrhagic shock [2]; Baseline (before hemorrhage)
  BP: 106.3 ± 8.7 mmHg
  HR: 409 ± 21 bpm
  Hb: 15.1 ± 0.3 g/dL
  Hct: 49.7 ± 1.0%
  Lactate: 1.39 ± 0.20 mmol/L
  pCO2: 54.2 ± 1.8 mmHg
  pO2: 59.9 ± 2.5 mmHg
  pH: 7.32 ± 0.01
Hemorrhagic shock [2]; RRx-001 treated blood, current study
  blood pressure following resuscitation: maintained blood pressure
Hemorrhagic shock [2]; Resuscitation (30 min)
  BP: 92.5 ± 6.7 mmHg
  HR: 436 ± 12 bpm
Hemorrhagic shock [2]; Resuscitation (60 min)
  BP: 98.5 ± 7.6 mmHg
  HR: 444 ± 10 bpm
  Hb: 9.5 ± 0.2 g/dL
  Hct: 31.1 ± 0.6%
  Lactate: 1.93 ± 0.23 mmol/L
  pCO2: 48.0 ± 3.1 mmHg
  pO2: 70.9 ± 3.4 mmHg
  pH: 7.39 ± 0.01
Hemorrhagic shock [2]; Resuscitation (90 min)
  BP: 106.3 ± 9.0 mmHg
  HR: 453 ± 17 bpm
  Hb: 9.5 ± 0.1 g/dL
  Hct: 31.2 ± 0.6%
  Lactate: 1.63 ± 0.23 mmol/L
  pCO2: 49.0 ± 2.2 mmHg
  pO2: 68.7 ± 2.9 mmHg
  pH: 7.36 ± 0.01
Hemorrhagic shock [2]; [7]
  BP: 46.3 ± 4.0 mmHg
  HR: 422.5 ± 25 bpm
  Hb: 8.9 ± 0.3 g/dL
  Hct: 29.0 ± 0.8%
Hemorrhagic shock [2]; [8]
  Lactate: 4.16 ± 0.39 mmol/L
  pCO2: 39.3 ± 1.2 mmHg
  pO2: 94.9 ± 5.1 mmHg
  pH: 7.28 ± 0.02
Hemorrhagic shock [2]; following resuscitation
  HR compared to the blood group: significantly increased
  pCO2 levels compared to the blood group: not significantly different
Hemorrhagic shock [2]; post-resuscitation
  decreases in lactate levels compared to the blood group: did not reach significance
Blood sample
  amount of nitric oxide produced by the blood sample: significant increase
Hemorrhagic shock [3]; [9]
  number of apoptotic cells compared to the blood group: significantly (P<0.01) less
  number of necrotic cells compared to the blood group: significantly (P<0.01) less

## O=NO [Nitrite, sodium nitrite]
Hemorrhagic shock [1]
  functional capillary density (FCD), baseline average and standard deviation: 107±12
Hemorrhagic shock [1]; hamster, in vivo
  functional capillary density (FCD) compared to the blood group: not significantly different
Hemorrhagic shock [2]; Baseline (before hemorrhage)
  BP: 104.3 ± 9.0 mmHg
  HR: 428 ± 13 bpm
  Hb: 15.2 ± 0.3 g/dL
  Hct: 49.8 ± 0.8%
  Lactate: 1.30 ± 0.13 mmol/L
  pCO2: 52.9 ± 1.2 mmHg
  pO2: 60.5 ± 1.0 mmHg
  pH: 7.34 ± 0.02
Hemorrhagic shock [2]; Resuscitation (30 min)
  BP: 91.3 ± 6.9 mmHg
  HR: 438 ± 21 bpm
Hemorrhagic shock [2]; Resuscitation (60 min)
  BP: 96.3 ± 7.5 mmHg
  HR: 447 ± 21 bpm
  Hb: 9.5 ± 0.2 g/dL
  Hct: 31.0 ± 0.7%
  Lactate: 1.95 ± 0.11 mmol/L
  pCO2: 48.3 ± 2.2 mmHg
  pO2: 76.0 ± 2.9 mmHg
  pH: 7.38 ± 0.02
Hemorrhagic shock [2]; Resuscitation (90 min)
  BP: 94.7 ± 6.5 mmHg
  HR: 459 ± 14 bpm
  Hb: 9.6 ± 0.1 g/dL
  Hct: 31.5 ± 0.4%
  Lactate: 1.71 ± 0.20 mmol/L
  pCO2: 45.0 ± 2.4 mmHg
  pO2: 65.2 ± 3.0 mmHg
  pH: 7.36 ± 0.02
Hemorrhagic shock [2]; [7]
  BP: 46.1 ± 3.6 mmHg
  HR: 455 ± 21 bpm
  Hb: 8.9 ± 0.1 g/dL
  Hct: 29.2 ± 0.5%
Hemorrhagic shock [2]; [8]
  Lactate: 4.52 ± 0.58 mmol/L
  pCO2: 38.9 ± 1.3 mmHg
  pO2: 93.1 ± 2.8 mmHg
  pH: 7.30 ± 0.01
Hemorrhagic shock [2]; hamster, in vivo
  HR compared to the blood group: significantly increased
  MAP compared to the blood group: significantly decreased
  decreases in lactate levels compared to the blood group: did not reach significance
  pH compared to the blood group: significantly increased
  pO2 levels compared to the blood group: significantly increased
Hemorrhagic shock [4]; [5]
  % metHb: 5.8±1.8%
  Blood pressure compared to 0 μM group (control group): significantly decreased
Hemorrhagic shock [4]; [6]
  % metHb: 3.1±1.3%
Hemorrhagic shock [3]; hamster, in vivo
  number of necrotic cells compared to the blood group: significantly reduced
